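All cell lines were grown in 96-well plates and treated with compound for 48 hours. At the GI50, growth is halved. At the TGI there is no net growth.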 Where a SMILES comes first, the peptide text is derived from it. [ ]: non-standard residue; d: D form. pGlu = O=C1CC[CH](C(=O)O)N1
Assays:
Experiment in all cases: NCI-60 cell line screen, 48 h
ACHN renal = tested on: ACHN renal
KM12 colon = tested on: KM12 colon
NCI-H522 lung = tested on: NCI-H522 lung
SF-268 CNS = tested on: SF-268 CNS
SK-MEL-28 melanoma = tested on: SK-MEL-28 melanoma
SK-MEL-5 melanoma = tested on: SK-MEL-5 melanoma
HL-60(TB) leukemia = tested on: HL-60(TB) leukemia
OVCAR-8 ovarian = tested on: OVCAR-8 ovarian
SR leukemia = tested on: SR leukemia
UACC-62 melanoma = tested on: UACC-62 melanoma

## COc1ccc(/C=N\NC(=O)Nc2cccc3ccccc23)cc1
ACHN renal
  TGI: 66.6 µM
KM12 colon
  TGI: > 100 µM
NCI-H522 lung
  TGI: > 100 µM
SF-268 CNS
  TGI: > 100 µM
SK-MEL-28 melanoma
  TGI: > 100 µM
SK-MEL-5 melanoma
  TGI: > 100 µM

## Cc1ccc(C(=O)C2=CN=C3C(=O)N(c4ccccc4)N(C)C3(C)C2=N)cc1 (stereo unspecified)
ACHN renal
  TGI: > 100 µM
HL-60(TB) leukemia
  TGI: > 100 µM
KM12 colon
  TGI: > 100 µM
NCI-H522 lung
  TGI: > 100 µM
OVCAR-8 ovarian
  TGI: > 100 µM
SK-MEL-5 melanoma
  TGI: > 100 µM
SR leukemia
  TGI: > 100 µM
UACC-62 melanoma
  TGI: > 100 µM

## CC(C)(C)c1cc(/C=C/C(=O)CC(=O)/C=C/c2cc(C(C)(C)C)c(O)c(C(C)(C)C)c2)cc(C(C)(C)C)c1O
ACHN renal
  TGI: > 50 µM
HL-60(TB) leukemia
  TGI: > 50 µM
KM12 colon
  TGI: > 50 µM
NCI-H522 lung
  TGI: > 50 µM
OVCAR-8 ovarian
  TGI: > 50 µM
SF-268 CNS
  TGI: > 50 µM
SK-MEL-28 melanoma
  TGI: > 50 µM
SK-MEL-5 melanoma
  TGI: > 50 µM
UACC-62 melanoma
  TGI: > 50 µM

## CNC(=O)c1ccccc1[S+]1c2cccc3cccc(c23)C(=O)N1C (stereo unspecified)
ACHN renal
  TGI: > 100 µM
HL-60(TB) leukemia
  TGI: > 100 µM
KM12 colon
  TGI: > 100 µM
NCI-H522 lung
  TGI: > 100 µM
OVCAR-8 ovarian
  TGI: > 100 µM
SF-268 CNS
  TGI: > 100 µM
SK-MEL-28 melanoma
  TGI: > 100 µM
SK-MEL-5 melanoma
  TGI: > 100 µM
UACC-62 melanoma
  TGI: > 100 µM

## C=CCCC(On1c(-c2ccc(Cl)cc2)csc1=S)c1ccccc1 (stereo unspecified)
ACHN renal
  TGI: > 100 µM
HL-60(TB) leukemia
  TGI: 53.6 µM
KM12 colon
  TGI: > 100 µM
NCI-H522 lung
  TGI: 71.7 µM
OVCAR-8 ovarian
  TGI: > 100 µM
SF-268 CNS
  TGI: > 100 µM
SK-MEL-28 melanoma
  TGI: > 100 µM
SK-MEL-5 melanoma
  TGI: 64.8 µM
UACC-62 melanoma
  TGI: > 100 µM

## O=c1oc2c/c(=C\c3ccccc3)c(=O)c3cccc1c3-2
ACHN renal
  TGI: > 100 µM
HL-60(TB) leukemia
  TGI: 71.1 µM
KM12 colon
  TGI: 56.3 µM
NCI-H522 lung
  TGI: 45.1 µM
OVCAR-8 ovarian
  TGI: 43.1 µM
SF-268 CNS
  TGI: 58.7 µM
SK-MEL-28 melanoma
  TGI: > 100 µM
SR leukemia
  TGI: > 100 µM
UACC-62 melanoma
  TGI: 59.9 µM

## CNc1ncnc2c1nnn2C
ACHN renal
  TGI: > 100 µM
HL-60(TB) leukemia
  TGI: > 100 µM
KM12 colon
  TGI: > 100 µM
NCI-H522 lung
  TGI: > 100 µM
OVCAR-8 ovarian
  TGI: > 100 µM
SK-MEL-28 melanoma
  TGI: > 100 µM
SK-MEL-5 melanoma
  TGI: > 100 µM
UACC-62 melanoma
  TGI: > 100 µM

## O=C(NN1C(=O)CSC1c1ccco1)c1ccncc1 (stereo unspecified)
ACHN renal
  TGI: > 100 µM
HL-60(TB) leukemia
  TGI: > 100 µM
KM12 colon
  TGI: > 100 µM
NCI-H522 lung
  TGI: > 100 µM
OVCAR-8 ovarian
  TGI: > 100 µM
SF-268 CNS
  TGI: > 100 µM
SK-MEL-28 melanoma
  TGI: > 100 µM
SK-MEL-5 melanoma
  TGI: > 100 µM
UACC-62 melanoma
  TGI: > 100 µM

## CC(NC(=O)C(Cc1cnc[nH]1)NC(=O)C1CCC(=O)N1)C(N)=O (stereo not drawn) ([pGlu]-His-Ala-NH2; configuration not given here)
ACHN renal
  TGI: > 100 µM
HL-60(TB) leukemia
  TGI: > 100 µM
KM12 colon
  TGI: > 100 µM
OVCAR-8 ovarian
  TGI: > 100 µM
SF-268 CNS
  TGI: > 100 µM
SK-MEL-28 melanoma
  TGI: > 100 µM
SK-MEL-5 melanoma
  TGI: > 100 µM
SR leukemia
  TGI: > 100 µM
UACC-62 melanoma
  TGI: > 100 µM

## CCOC(=O)c1cn(CC)c2cc3c(cc2c1=O)CCS3(=O)=O
ACHN renal
  TGI: > 100 µM
HL-60(TB) leukemia
  TGI: > 100 µM
KM12 colon
  TGI: > 100 µM
OVCAR-8 ovarian
  TGI: > 100 µM
SF-268 CNS
  TGI: > 100 µM
SK-MEL-28 melanoma
  TGI: > 100 µM
SK-MEL-5 melanoma
  TGI: > 100 µM
SR leukemia
  TGI: > 100 µM
UACC-62 melanoma
  TGI: > 100 µM

## COc1cc2c(cc1OC(=O)c1cc3ccccc3[nH]1)N=C[C@@H]1CCCN1C2=O
ACHN renal
  TGI: 13 µM
KM12 colon
  TGI: 3.15 µM
NCI-H522 lung
  TGI: 1.19 µM
SF-268 CNS
  TGI: > 22.2 µM
SK-MEL-28 melanoma
  TGI: 2.21 µM
SK-MEL-5 melanoma
  TGI: 0.335 µM
SR leukemia
  TGI: 0.969 µM
UACC-62 melanoma
  TGI: 0.707 µM

## COc1cc(/C=c2/c3ccccc3n3c2cc(-c2ccccc2)[n+]3C)cc(OC)c1OC
ACHN renal
  TGI: 15 µM
HL-60(TB) leukemia
  TGI: 7.2 µM
KM12 colon
  TGI: 3.67 µM
NCI-H522 lung
  TGI: 9.6 µM
OVCAR-8 ovarian
  TGI: 12.9 µM
SF-268 CNS
  TGI: 22.9 µM
SK-MEL-28 melanoma
  TGI: 19.1 µM
SK-MEL-5 melanoma
  TGI: 6.73 µM
UACC-62 melanoma
  TGI: 10.5 µM

## COc1ccc(NCc2cnc3nc(N)nc(N)c3c2C)cc1
ACHN renal
  TGI: > 100 µM
HL-60(TB) leukemia
  TGI: > 100 µM
KM12 colon
  TGI: > 100 µM
NCI-H522 lung
  TGI: > 100 µM
SF-268 CNS
  TGI: > 100 µM
SK-MEL-28 melanoma
  TGI: > 100 µM
SK-MEL-5 melanoma
  TGI: > 100 µM
SR leukemia
  TGI: > 100 µM
UACC-62 melanoma
  TGI: > 100 µM

## Cc1cc(C)c2c(=N)c3ccccc3n(CCCCCCn3c4ccccc4c(=N)c4c(C)cc(C)nc43)c2n1
ACHN renal
  TGI: 2.91 µM
KM12 colon
  TGI: 0.973 µM
NCI-H522 lung
  TGI: 2.31 µM
OVCAR-8 ovarian
  TGI: 3.14 µM
SK-MEL-28 melanoma
  TGI: 2.64 µM
SK-MEL-5 melanoma
  TGI: 3.39 µM
UACC-62 melanoma
  TGI: 3.26 µM

## CCOC(=O)C1C[C@H]2CO[C@H](c3ccccc3)N2C1=O (stereo partly specified)
ACHN renal
  TGI: > 100 µM
KM12 colon
  TGI: > 100 µM
NCI-H522 lung
  TGI: > 100 µM
OVCAR-8 ovarian
  TGI: > 100 µM
SF-268 CNS
  TGI: > 100 µM
SK-MEL-28 melanoma
  TGI: > 100 µM
SK-MEL-5 melanoma
  TGI: > 100 µM
SR leukemia
  TGI: > 100 µM
UACC-62 melanoma
  TGI: > 100 µM

## NC(=O)c1ncn2c(=O)n(CCl)nnc12
ACHN renal
  TGI: > 100 µM
KM12 colon
  TGI: > 100 µM
NCI-H522 lung
  TGI: > 100 µM
OVCAR-8 ovarian
  TGI: > 100 µM
SF-268 CNS
  TGI: > 100 µM
SK-MEL-28 melanoma
  TGI: > 100 µM
SK-MEL-5 melanoma
  TGI: > 100 µM
SR leukemia
  TGI: > 100 µM
UACC-62 melanoma
  TGI: > 100 µM

## CO[C@H]1C[C@H](n2cc(C)c(=O)[nH]c2=O)O[C@@H]1CO
ACHN renal
  TGI: > 100 µM
HL-60(TB) leukemia
  TGI: > 100 µM
KM12 colon
  TGI: > 100 µM
OVCAR-8 ovarian
  TGI: > 100 µM
SF-268 CNS
  TGI: > 100 µM
SK-MEL-28 melanoma
  TGI: > 100 µM
SK-MEL-5 melanoma
  TGI: > 100 µM
SR leukemia
  TGI: > 100 µM
UACC-62 melanoma
  TGI: > 100 µM

## COc1nc2ccc(CNc3ccc(C(=O)O)cc3)cc2nc1OC
ACHN renal
  TGI: > 10 µM
HL-60(TB) leukemia
  TGI: > 10 µM
KM12 colon
  TGI: > 10 µM
NCI-H522 lung
  TGI: > 10 µM
OVCAR-8 ovarian
  TGI: > 10 µM
SF-268 CNS
  TGI: > 10 µM
SK-MEL-28 melanoma
  TGI: > 10 µM
SK-MEL-5 melanoma
  TGI: > 10 µM
UACC-62 melanoma
  TGI: > 10 µM

## Cc1c(O)c(=O)ccn1CCc1c[nH]c2ccccc12
ACHN renal
  TGI: 23.5 µM
HL-60(TB) leukemia
  TGI: 53.3 µM
KM12 colon
  TGI: > 100 µM
OVCAR-8 ovarian
  TGI: 73.6 µM
SF-268 CNS
  TGI: 8.77 µM
SK-MEL-5 melanoma
  TGI: 24.1 µM
SR leukemia
  TGI: 49.2 µM

## O=C(Cc1ccccc1)N=Nc1c(O)[nH]c2ccccc12
ACHN renal
  TGI: > 100 µM
KM12 colon
  TGI: > 100 µM
NCI-H522 lung
  TGI: > 100 µM
OVCAR-8 ovarian
  TGI: > 100 µM
SF-268 CNS
  TGI: 70.7 µM
SK-MEL-5 melanoma
  TGI: > 100 µM
SR leukemia
  TGI: > 100 µM
UACC-62 melanoma
  TGI: > 100 µM

## CCOC(=O)C1=CC(C)(C(=O)OCC)Nc2c(nc(SC)n(C)c2=O)N1 (stereo unspecified)
ACHN renal
  TGI: > 10 µM
KM12 colon
  TGI: > 10 µM
NCI-H522 lung
  TGI: > 10 µM
OVCAR-8 ovarian
  TGI: > 10 µM
SF-268 CNS
  TGI: > 10 µM
SK-MEL-28 melanoma
  TGI: > 10 µM
SK-MEL-5 melanoma
  TGI: > 10 µM

## Cn1cc(-c2nc(-c3c[nH]c4ccncc34)cs2)c2cc(F)ccc21
ACHN renal
  GI50: 1.74 µM
  TGI: 3.12 µM
KM12 colon
  GI50: 1.63 µM
  TGI: 3.11 µM
NCI-H522 lung
  GI50: 1.67 µM
  TGI: 3.23 µM
OVCAR-8 ovarian
  GI50: 2.11 µM
  TGI: 4.79 µM
SF-268 CNS
  GI50: 1.74 µM
  TGI: 3.44 µM
SK-MEL-28 melanoma
  GI50: 1.63 µM
  TGI: 3.04 µM
SK-MEL-5 melanoma
  GI50: 1.65 µM
  TGI: 3.03 µM
UACC-62 melanoma
  GI50: 1.71 µM
  TGI: 3.18 µM

## Clc1ccc2nc(CC3CCCC3)[nH]c2c1
ACHN renal
  TGI: 32.6 µM
KM12 colon
  TGI: 38.8 µM
NCI-H522 lung
  TGI: 21.2 µM
OVCAR-8 ovarian
  TGI: > 100 µM
SF-268 CNS
  TGI: 40.2 µM
SK-MEL-28 melanoma
  TGI: 63.9 µM
SK-MEL-5 melanoma
  TGI: 24.9 µM
SR leukemia
  TGI: 26.5 µM
UACC-62 melanoma
  TGI: 33.4 µM

Reference: PubChem BioAssay (NCI)
